From PMC6943619, “Synthesis and Pharmacological Evaluation of Hybrids Targeting Opioid and Neurokinin Receptors” (Molecules, 2019)
Where a SMILES comes first, the peptide text is derived from it. Bridges are numbered along the chain shown (N, C = ends). [ ]: non-standard residue; d: D form.

Key:
human NK1 = human NK1 (Homo sapiens, UniProt P25103); experiment: Radioligand binding assay, displacement of [3H][Sar9, Met(O2)11]SP; set-up: purchased PerkinElmer (Krakow, Poland); host or cells: CHO cell membranes; conditions: displacement of [3H][Sar9, Met(O2)11]SP from membranes of CHO cells transfected with human NK1 receptor; 50 mM Tris/HCl pH 7.4, 0.5% BSA, peptidase inhibitors, 2 h at 25 °C; mean ± SEM, n ≥ 3
Chain of human NK1 (P25103 whole entry): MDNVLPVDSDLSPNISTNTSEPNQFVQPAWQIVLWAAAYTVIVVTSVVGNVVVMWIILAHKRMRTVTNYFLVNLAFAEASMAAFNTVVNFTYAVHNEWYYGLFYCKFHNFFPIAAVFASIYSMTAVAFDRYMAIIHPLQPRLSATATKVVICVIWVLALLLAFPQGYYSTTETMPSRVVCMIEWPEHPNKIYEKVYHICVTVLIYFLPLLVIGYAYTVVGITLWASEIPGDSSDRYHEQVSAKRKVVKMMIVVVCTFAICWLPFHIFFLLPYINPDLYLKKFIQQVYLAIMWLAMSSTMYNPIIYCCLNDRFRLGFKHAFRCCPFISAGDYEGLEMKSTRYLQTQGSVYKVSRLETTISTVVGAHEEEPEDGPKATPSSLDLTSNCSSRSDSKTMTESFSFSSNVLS
Procedure: The binding assay was also used to examine the affinity of the synthesized hybrids for NK1 in commercial membranes of CHO cells stably expressing human NK1.
(§1) To determine the affinity of peptide analogs to respective receptors, competition binding experiments were performed, as described in detail elsewhere.
(§2) Commercial membranes of CHO cells stably expressing either human ORs or NK1 receptor were used. […] Membranes were incubated in a 0.5 mL volume of 50 mM Tris/HCl (pH = 7.4), 0.5% bovine serum albumin (BSA), with a number of peptidase inhibitors (bacitracin, bestatin, captopril) and various concentrations of radioligands for 2 h at 25 °C.
(§3) The pharmacological terminology adopted in this paper is consistent with International Union of Basic and Clinical Pharmacology (IUPHAR) recommendations. Concentration–response curves were analyzed by nonlinear regression using Graph Pad Prism 6.0 (La Jolla, CA, USA). […] Concentration–response curves were fitted with the four-parameter logistic nonlinear regression model (1) Effect=baseline+Emax−baseline/1+10^logEC50−X·n where X is the agonist concentration and n is the Hill coefficient. Ligand efficacy was expressed as intrinsic activity (α) calculated as a ratio of the peptide Emax to the Emax of the standard agonist (Supplementary Materials, Figure S7). […] All statistical analyses were performed using Graph Pad Prism 6.0 (La Jolla, CA, USA). Differences between groups were analyzed with one-way ANOVA and a post hoc multiple comparison by the Student–Newman–Keuls test. A probability level of 0.05 or smaller was used to indicate statistical significance.

[1] = molecular target: T1, human opioid receptor KOR (Homo sapiens, UniProt P41145); experiment: Radioligand binding assay, displacement of [3H]U-69593; conditions: displacement of [3H]U-69593 from membranes of CHO cells transfected with human KOR, 50 mM Tris/HCl pH 7.4, 0.5% BSA, peptidase inhibitors, 2 h at 25 °C, mean ± SEM, n ≥ 3
T1 construct: purchased PerkinElmer (Krakow, Poland); host or cells: CHO cell membranes
T1 sequence (P41145 whole entry): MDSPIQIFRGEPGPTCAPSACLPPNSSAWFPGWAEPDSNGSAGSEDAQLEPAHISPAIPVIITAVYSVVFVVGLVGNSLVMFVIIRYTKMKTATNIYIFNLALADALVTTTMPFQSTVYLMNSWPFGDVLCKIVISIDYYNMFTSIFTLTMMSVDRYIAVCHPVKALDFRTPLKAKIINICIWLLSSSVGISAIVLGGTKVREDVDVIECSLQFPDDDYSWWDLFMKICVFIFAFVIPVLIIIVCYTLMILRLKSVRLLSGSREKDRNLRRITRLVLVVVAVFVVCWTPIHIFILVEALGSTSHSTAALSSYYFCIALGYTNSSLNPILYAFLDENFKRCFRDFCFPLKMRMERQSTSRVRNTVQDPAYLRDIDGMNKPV
Procedure: (§4) A radioligand binding assay was performed to determine the opioid receptor (OR) binding affinities of the novel analogs using commercially available membranes of Chinese hamster ovary cells (CHO) transfected with human recombinant ORs. [^3H]DAMGO, [^3H]deltorphin-2, and [^3H]U-69593 were used as the radioligands for MOR, DOR, and KOR, respectively. Tyr-[D-Lys-Phe-Phe-Asp]NH2 (1) was used as a reference opioid compound. […] None of them acquired significant DOR affinity.
as §1
(§5) Commercial membranes of CHO cells stably expressing either human ORs or NK1 receptor were used. [^3H]DAMGO, [^3H]deltorphin-2, and [^3H]U-69593 were employed as the competing radioligands for MOR, DOR, and KOR, respectively, while [^3H][Sar^9, Met(O2)^11]SP was utilized for the NK1 receptor. Membranes were incubated in a 0.5 mL volume of 50 mM Tris/HCl (pH = 7.4), 0.5% bovine serum albumin (BSA), with a number of peptidase inhibitors (bacitracin, bestatin, captopril) and various concentrations of radioligands for 2 h at 25 °C. Nonspecific binding was assessed in the presence of […] naloxone for ORs or SP for NK1 receptor.
(§6) The pharmacological terminology adopted in this paper is consistent with International Union of Basic and Clinical Pharmacology (IUPHAR) recommendations. Concentration–response curves were analyzed by nonlinear regression using Graph Pad Prism 6.0 (La Jolla, CA, USA). […]. […] Concentration–response curves were fitted with the four-parameter logistic nonlinear regression model (1) Effect=baseline+Emax−baseline/1+10^logEC50−X·n where X is the agonist concentration and n is the Hill coefficient. Ligand efficacy was expressed as intrinsic activity (α) calculated as a ratio of the peptide Emax to the Emax of the standard agonist (Supplementary Materials, Figure S7). […]. All statistical analyses were performed using Graph Pad Prism 6.0 (La Jolla, CA, USA). Differences between groups were analyzed with one-way ANOVA and a post hoc multiple comparison by the Student–Newman–Keuls test. A probability level of 0.05 or smaller was used to indicate statistical significance.

[2] = cited from earlier work
Text: Here, we report on the synthesis and the initial pharmacological testing of several hybrid peptides with opioid agonist/NK1 antagonist and opioid agonist/NK1 agonist profiles. We performed structure affinity/activity relationship studies, seeking hybrids that could simultaneously and potently bind opioid and NK1 receptors. Both types of hybrids were designed with the same opioid fragment to make the comparison of their activity easier. It was already documented in the literature that simultaneous activation of both MOR and KOR intensifies the analgesic effect of pure MOR agonists. There ...

human MOR = molecular target: T2, human MOR (Homo sapiens, UniProt P35372); experiment: Calcium mobilization functional assay, agonist mode; type: cell-based; conditions: CHO cells co-expressing human MOR and Gαqi5; Fluo-4 AM calcium signal; n = 5; read-out: MOR pEC50 (CL95%) (converted)
T2 construct: expressed in transfected cells; host or cells: CHO cells (University of Ferrara), co-expressing Gαqi5
T2 sequence (P35372 whole entry): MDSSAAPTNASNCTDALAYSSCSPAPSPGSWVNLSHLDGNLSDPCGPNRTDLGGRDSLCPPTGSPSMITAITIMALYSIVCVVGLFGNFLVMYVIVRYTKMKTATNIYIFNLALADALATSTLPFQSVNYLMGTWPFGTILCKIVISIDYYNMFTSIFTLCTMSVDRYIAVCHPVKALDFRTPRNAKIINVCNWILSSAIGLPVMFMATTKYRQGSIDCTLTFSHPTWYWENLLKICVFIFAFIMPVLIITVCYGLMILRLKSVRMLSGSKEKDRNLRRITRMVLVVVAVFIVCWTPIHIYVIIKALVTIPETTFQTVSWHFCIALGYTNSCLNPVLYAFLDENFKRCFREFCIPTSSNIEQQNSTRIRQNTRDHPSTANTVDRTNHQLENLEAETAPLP

mice = experiment: Stool collection (stool mass, stool water content); type: in vivo; conditions: repeated i.p. injections 5 mg/kg, stool collected 90 min after injection on Days 1–6, compared to control group, n = 10
Procedure: In order to determine the influence of prolonged administration of the tested compounds on gastrointestinal passage, stool was collected for six days from mice used in the tolerance development test.
Figure 5 Effect of repeated i.p. injections of saline and the tested peptides on stool mass (A), stool water content (B), food intake (C), and water consumption (D). The data represent mean ± SEM, n = 10. Statistical significance was assessed using one-way ANOVA and a post hoc multiple comparison by the Student–Newman–Keuls test. *** p < 0.001, as compared to control.
After the i.p. injections of saline or peptides (Days 1–6), mice were placed in a separate clean cages and stool was collected for a period of 90 min. Fecal pellets were collected immediately after expulsion to avoid evaporation and placed in closed 1.5 mL tubes. Tubes were weighed to obtain the wet weight of the stool. Then, the tubes were opened and stool was dried overnight at 65 °C and reweighed to obtain the dry weight. The stool water content was calculated from the difference between the wet and dry stool weights.

[3] = molecular target: T3, human opioid receptor DOR (Homo sapiens, UniProt P41143); experiment: Radioligand binding assay, displacement of [3H]deltorphin-2; conditions: displacement of [3H]deltorphin-2 from membranes of CHO cells transfected with human DOR, 50 mM Tris/HCl pH 7.4, 0.5% BSA, peptidase inhibitors, 2 h at 25 °C, mean ± SEM, n ≥ 3
T3 construct: purchased PerkinElmer (Krakow, Poland); host or cells: CHO cell membranes
T3 sequence (P41143 whole entry): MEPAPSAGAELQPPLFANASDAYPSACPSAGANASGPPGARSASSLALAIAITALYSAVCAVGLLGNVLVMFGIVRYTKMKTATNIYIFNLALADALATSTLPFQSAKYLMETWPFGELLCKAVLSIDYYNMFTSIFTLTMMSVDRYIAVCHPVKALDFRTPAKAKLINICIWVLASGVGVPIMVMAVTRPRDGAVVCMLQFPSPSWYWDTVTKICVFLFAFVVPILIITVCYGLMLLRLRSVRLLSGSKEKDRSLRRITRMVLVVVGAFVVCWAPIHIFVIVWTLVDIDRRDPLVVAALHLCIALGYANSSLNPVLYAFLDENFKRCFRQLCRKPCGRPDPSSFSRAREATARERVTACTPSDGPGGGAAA
Procedure: A radioligand binding assay was performed to determine the opioid receptor (OR) binding affinities of the novel analogs using commercially available membranes of Chinese hamster ovary cells (CHO) transfected with human recombinant ORs. […] Tyr-[D-Lys-Phe-Phe-Asp]NH2 (1) was used as a reference opioid compound.
as §1, §2, §3

DOR = molecular target: T4, DOR (Homo sapiens, UniProt P41143); experiment: Calcium mobilization functional assay, agonist mode; type: cell-based; conditions: CHO cells co-expressing DOR and GαqG66Di5; Fluo-4 AM calcium signal; n = 5
T4 construct: expressed in transfected cells; host or cells: CHO cells (University of Ferrara), co-expressing GαqG66Di5
T4 sequence (P41143 whole entry): as above

human KOR = molecular target: T5, human KOR (Homo sapiens, UniProt P41145); experiment: as above; type: cell-based; conditions: CHO cells co-expressing human KOR and Gαqi5; Fluo-4 AM calcium signal; n = 5; read-out: KOR pEC50 (CL95%) (converted)
T5 construct: expressed in transfected cells; host or cells: CHO cells (University of Ferrara), co-expressing Gαqi5
T5 sequence (P41145 whole entry): as the sequence (P41145 whole entry) above

[4] = molecular target: T6, human opioid receptor MOR (Homo sapiens, UniProt P35372); experiment: Radioligand binding assay, displacement of [3H]DAMGO; conditions: displacement of [3H]DAMGO from membranes of CHO cells transfected with human MOR, 50 mM Tris/HCl pH 7.4, 0.5% BSA, peptidase inhibitors, 2 h at 25 °C, mean ± SEM, n ≥ 3
T6 construct: purchased PerkinElmer (Krakow, Poland); host or cells: CHO cell membranes
T6 sequence (P35372 whole entry): as the sequence (P35372 whole entry) above
Procedure: as §4, §1, §5, §6

## NC(=O)[C@@H]1CC(=O)NCCCC[C@@H](NC(=O)[C@@H](N)Cc2ccc(O)cc2)C(=O)N[C@@H](Cc2ccccc2)C(=O)N[C@@H](Cc2ccccc2)C(=O)N1 [compound 1, Tyr-c[D-Lys-Phe-Phe-Asp]NH2] (H-Y[dK]FFD-NH2; lactam 2-5)
Human NK1
  Ki NK1: Inactive
[1]
  Ki: 1.12 ± 0.2 nM
[2]
  enzymatic stability: very good enzymatic stability
Human MOR
  EC50: 1.05 nM
mice
  stool mass (constipation): serious constipation
[3]
  Ki: 171 ± 3.5 nM
DOR
  DOR pEC50 (CL95%): Crc incomplete
Human KOR
  EC50: 2.19 nM
[4]
  Ki: 0.35 ± 0.02 nM
